Assay results from the NIST ThermoML archive (doi:10.1016/j.jct.2008.05.005).

Test: xn = mol fraction of the nth substance listed
Conditions: Liquid, Vibrating tube method

CCCCn1cc[n+](C)c1.F[B-](F)(F)F [1-butyl-3-methylimidazolium tetrafluoroborate] + CO
Conditions | mass density [kg/m3]
323.15 K, 10080 kPa, x1 = 0.2626 | 1052.82
323.15 K, 10090 kPa, x1 = 0.4988 | 1131.48
323.15 K, 10140 kPa, x1 = 0.1302 | 960.32
323.15 K, 10160 kPa, x1 = 0.0433 | 854.23
323.15 K, 10340 kPa, x1 = 0.7501 | 1173.44
323.15 K, 11020 kPa, x1 = 0.0087 | 792.32
323.15 K, 15060 kPa, x1 = 0.2626 | 1056.14
323.15 K, 15120 kPa, x1 = 0.1302 | 964.14
323.15 K, 15250 kPa, x1 = 0.0433 | 858.75
323.15 K, 15420 kPa, x1 = 0.4988 | 1134.4
323.15 K, 15430 kPa, x1 = 0.7501 | 1176.04
323.15 K, 15440 kPa, x1 = 0.0087 | 796.64
323.15 K, 15470 kPa, x1 = 0.9102 | 1192.72
323.15 K, 20070 kPa, x1 = 0.7501 | 1178.36
323.15 K, 20090 kPa, x1 = 0.9102 | 1194.92
323.15 K, 20110 kPa, x1 = 0.1302 | 967.85
323.15 K, 20340 kPa, x1 = 0.0433 | 863.04
323.15 K, 20430 kPa, x1 = 0.2626 | 1059.59
323.15 K, 20640 kPa, x1 = 0.0087 | 801.47
323.15 K, 20740 kPa, x1 = 0.4988 | 1137.33
323.15 K, 25030 kPa, x1 = 0.4988 | 1139.71
323.15 K, 25090 kPa, x1 = 0.7501 | 1180.84
323.15 K, 25120 kPa, x1 = 0.1302 | 971.44
323.15 K, 25310 kPa, x1 = 0.9102 | 1197.38
323.15 K, 25630 kPa, x1 = 0.0433 | 867.24
323.15 K, 25660 kPa, x1 = 0.0087 | 805.89
323.15 K, 25810 kPa, x1 = 0.2626 | 1062.91
323.15 K, 29940 kPa, x1 = 0.0433 | 870.48
323.15 K, 30010 kPa, x1 = 0.4988 | 1142.47
323.15 K, 30090 kPa, x1 = 0.2626 | 1065.44
323.15 K, 30410 kPa, x1 = 0.7501 | 1183.41
323.15 K, 30440 kPa, x1 = 0.1302 | 975.12
323.15 K, 30450 kPa, x1 = 0.9102 | 1199.76
323.15 K, 30560 kPa, x1 = 0.0087 | 809.96
323.15 K, 35210 kPa, x1 = 0.0433 | 874.21
323.15 K, 35240 kPa, x1 = 0.2626 | 1068.37
323.15 K, 35240 kPa, x1 = 0.4988 | 1145.39
323.15 K, 35240 kPa, x1 = 0.7501 | 1185.69
323.15 K, 35450 kPa, x1 = 0.0087 | 813.8
323.15 K, 35620 kPa, x1 = 0.1302 | 978.57
323.15 K, 35860 kPa, x1 = 0.9102 | 1202.22
323.15 K, 39410 kPa, x1 = 0.0087 | 816.73
323.15 K, 39620 kPa, x1 = 0.1302 | 981.14
323.15 K, 39860 kPa, x1 = 0.9102 | 1204.01
323.15 K, 39890 kPa, x1 = 0.0433 | 877.31
323.15 K, 39890 kPa, x1 = 0.7501 | 1187.86
323.15 K, 39970 kPa, x1 = 0.2626 | 1070.95
323.15 K, 39970 kPa, x1 = 0.4988 | 1148.04
348.15 K, 340 kPa, x1 = 0.1302 | 931.46
348.15 K, 420 kPa, x1 = 0.9102 | 1166.95
348.15 K, 610 kPa, x1 = 0.4988 | 1107.55
348.15 K, 640 kPa, x1 = 0.0087 | 757.2
348.15 K, 710 kPa, x1 = 0.0433 | 821.46
348.15 K, 860 kPa, x1 = 0.2626 | 1026.35
348.15 K, 870 kPa, x1 = 0.7501 | 1150.03
348.15 K, 5060 kPa, x1 = 0.2626 | 1029.49
348.15 K, 5070 kPa, x1 = 0.7501 | 1152.55
348.15 K, 5310 kPa, x1 = 0.9102 | 1169.75
348.15 K, 5370 kPa, x1 = 0.0433 | 826.71
348.15 K, 5410 kPa, x1 = 0.4988 | 1110.43
348.15 K, 5710 kPa, x1 = 0.1302 | 936.68
348.15 K, 6020 kPa, x1 = 0.0087 | 763.72
348.15 K, 10060 kPa, x1 = 0.4988 | 1113.45
348.15 K, 10060 kPa, x1 = 0.7501 | 1155.48
348.15 K, 10070 kPa, x1 = 0.9102 | 1172.42
348.15 K, 10410 kPa, x1 = 0.2626 | 1033.58
348.15 K, 10670 kPa, x1 = 0.0433 | 832.4
348.15 K, 10820 kPa, x1 = 0.1302 | 941.38
348.15 K, 10960 kPa, x1 = 0.0087 | 769.43
348.15 K, 15090 kPa, x1 = 0.2626 | 1037.07
348.15 K, 15120 kPa, x1 = 0.0087 | 774.02
348.15 K, 15120 kPa, x1 = 0.4988 | 1116.66
348.15 K, 15140 kPa, x1 = 0.1302 | 945.16
348.15 K, 15150 kPa, x1 = 0.0433 | 836.97
348.15 K, 15420 kPa, x1 = 0.9102 | 1175.35
348.15 K, 15870 kPa, x1 = 0.7501 | 1158.8
348.15 K, 20070 kPa, x1 = 0.4988 | 1119.71
348.15 K, 20080 kPa, x1 = 0.7501 | 1161.16
348.15 K, 20110 kPa, x1 = 0.0433 | 841.77
